Assay results: the NIST ThermoML archive (doi:10.1016/j.jct.2005.03.012)
± gives the expanded uncertainty stated by the source.

Assay: excess molar enthalpy (molar enthalpy of mixing); xn = mol fraction of the nth substance listed
Conditions: Liquid

CO [methanol] + O
Conditions	excess molar enthalpy [kcal/mol]
323.15 K, 2000 kPa, x1 = 0.2	-0.153 ± 0.0055
323.15 K, 2000 kPa, x1 = 0.4	-0.168 ± 0.00598
323.15 K, 2000 kPa, x1 = 0.6	-0.142 ± 0.00502
323.15 K, 2000 kPa, x1 = 0.8	-0.0978 ± 0.00382
323.15 K, 5000 kPa, x1 = 0.1	-0.106 ± 0.00406
323.15 K, 5000 kPa, x1 = 0.2	-0.154 ± 0.0055
323.15 K, 5000 kPa, x1 = 0.3	-0.17 ± 0.00598
323.15 K, 5000 kPa, x1 = 0.4	-0.169 ± 0.00598
323.15 K, 5000 kPa, x1 = 0.5	-0.158 ± 0.00574
323.15 K, 5000 kPa, x1 = 0.6	-0.142 ± 0.00526
323.15 K, 5000 kPa, x1 = 0.7	-0.122 ± 0.00454
323.15 K, 5000 kPa, x1 = 0.8	-0.0987 ± 0.00382
323.15 K, 5000 kPa, x1 = 0.9	-0.055 ± 0.00239
323.15 K, 10000 kPa, x1 = 0.2	-0.155 ± 0.0055
323.15 K, 10000 kPa, x1 = 0.4	-0.172 ± 0.00598
323.15 K, 10000 kPa, x1 = 0.6	-0.143 ± 0.00526
323.15 K, 10000 kPa, x1 = 0.8	-0.0997 ± 0.00382
325.16 K, 5000 kPa, x1 = 0.1	-0.103 ± 0.00382
325.16 K, 5000 kPa, x1 = 0.2	-0.15 ± 0.00526
325.16 K, 5000 kPa, x1 = 0.3	-0.165 ± 0.00574
325.16 K, 5000 kPa, x1 = 0.4	-0.164 ± 0.00574
325.16 K, 5000 kPa, x1 = 0.5	-0.153 ± 0.0055
325.16 K, 5000 kPa, x1 = 0.6	-0.139 ± 0.00502
325.16 K, 5000 kPa, x1 = 0.7	-0.119 ± 0.00454
325.16 K, 5000 kPa, x1 = 0.8	-0.0958 ± 0.00359
325.16 K, 5000 kPa, x1 = 0.9	-0.0548 ± 0.00239
325.16 K, 10000 kPa, x1 = 0.2	-0.15 ± 0.0055
325.16 K, 10000 kPa, x1 = 0.4	-0.166 ± 0.00598
325.16 K, 10000 kPa, x1 = 0.6	-0.139 ± 0.00502
325.16 K, 10000 kPa, x1 = 0.8	-0.0964 ± 0.00382
325.17 K, 2000 kPa, x1 = 0.2	-0.149 ± 0.00526
325.17 K, 2000 kPa, x1 = 0.4	-0.164 ± 0.00574
325.17 K, 2000 kPa, x1 = 0.6	-0.138 ± 0.00502
325.17 K, 2000 kPa, x1 = 0.8	-0.0951 ± 0.00359
325.45 K, 5000 kPa, x1 = 0.9	-0.0537 ± 0.00239
327.47 K, 5000 kPa, x1 = 0.8	-0.0944 ± 0.00359
327.48 K, 5000 kPa, x1 = 0.9	-0.0536 ± 0.00239
327.62 K, 2000 kPa, x1 = 0.8	-0.0935 ± 0.00359
327.85 K, 10000 kPa, x1 = 0.8	-0.0948 ± 0.00359
328.61 K, 5000 kPa, x1 = 0.1	-0.0988 ± 0.00382
328.71 K, 5000 kPa, x1 = 0.7	-0.114 ± 0.0043
329.03 K, 2000 kPa, x1 = 0.8	-0.0907 ± 0.00359
329.7 K, 10000 kPa, x1 = 0.6	-0.132 ± 0.00478
329.76 K, 5000 kPa, x1 = 0.6	-0.131 ± 0.00478
329.82 K, 2000 kPa, x1 = 0.6	-0.131 ± 0.00478
329.82 K, 10000 kPa, x1 = 0.8	-0.0921 ± 0.00359
330.07 K, 5000 kPa, x1 = 0.8	-0.0915 ± 0.00359
330.39 K, 5000 kPa, x1 = 0.1	-0.0956 ± 0.00359
330.5 K, 5000 kPa, x1 = 0.5	-0.144 ± 0.00526
330.64 K, 2000 kPa, x1 = 0.2	-0.139 ± 0.00502
330.67 K, 10000 kPa, x1 = 0.2	-0.14 ± 0.00502
330.69 K, 5000 kPa, x1 = 0.2	-0.14 ± 0.00502
330.7 K, 5000 kPa, x1 = 0.7	-0.112 ± 0.0043
331.07 K, 2000 kPa, x1 = 0.4	-0.151 ± 0.0055
331.07 K, 5000 kPa, x1 = 0.4	-0.153 ± 0.0055
331.13 K, 10000 kPa, x1 = 0.4	-0.153 ± 0.0055
331.23 K, 5000 kPa, x1 = 0.3	-0.152 ± 0.0055
331.57 K, 10000 kPa, x1 = 0.6	-0.128 ± 0.00478
331.61 K, 5000 kPa, x1 = 0.6	-0.128 ± 0.00478
331.66 K, 2000 kPa, x1 = 0.6	-0.127 ± 0.00478
332.3 K, 5000 kPa, x1 = 0.5	-0.14 ± 0.00502
332.4 K, 10000 kPa, x1 = 0.2	-0.135 ± 0.00502
332.42 K, 2000 kPa, x1 = 0.2	-0.133 ± 0.00478
332.5 K, 5000 kPa, x1 = 0.2	-0.136 ± 0.00502
332.88 K, 2000 kPa, x1 = 0.4	-0.148 ± 0.00526
332.9 K, 5000 kPa, x1 = 0.4	-0.148 ± 0.00526
332.91 K, 10000 kPa, x1 = 0.4	-0.149 ± 0.00526
333.05 K, 5000 kPa, x1 = 0.3	-0.148 ± 0.00526
348.15 K, 5000 kPa, x1 = 0.1	-0.0704 ± 0.00287
348.15 K, 5000 kPa, x1 = 0.2	-0.102 ± 0.00382
348.15 K, 5000 kPa, x1 = 0.3	-0.112 ± 0.0043
348.15 K, 5000 kPa, x1 = 0.4	-0.111 ± 0.0043
348.15 K, 5000 kPa, x1 = 0.5	-0.107 ± 0.00406
348.15 K, 5000 kPa, x1 = 0.6	-0.0974 ± 0.00382
348.15 K, 5000 kPa, x1 = 0.7	-0.0869 ± 0.00335
348.15 K, 5000 kPa, x1 = 0.8	-0.0695 ± 0.00287
348.15 K, 5000 kPa, x1 = 0.9	-0.0424 ± 0.00208
349.68 K, 5000 kPa, x1 = 0.9	-0.0412 ± 0.00201
350.05 K, 5000 kPa, x1 = 0.1	-0.0674 ± 0.00287
350.05 K, 5000 kPa, x1 = 0.2	-0.0978 ± 0.00382
350.05 K, 5000 kPa, x1 = 0.3	-0.106 ± 0.00406
350.05 K, 5000 kPa, x1 = 0.4	-0.106 ± 0.00406
350.05 K, 5000 kPa, x1 = 0.5	-0.102 ± 0.00382
350.05 K, 5000 kPa, x1 = 0.6	-0.0936 ± 0.00359
350.05 K, 5000 kPa, x1 = 0.7	-0.0835 ± 0.00335
350.05 K, 5000 kPa, x1 = 0.8	-0.0667 ± 0.00287
350.05 K, 5000 kPa, x1 = 0.9	-0.0408 ± 0.00201
351.04 K, 5000 kPa, x1 = 0.8	-0.0626 ± 0.00263
351.25 K, 5000 kPa, x1 = 0.9	-0.0398 ± 0.00198
351.64 K, 5000 kPa, x1 = 0.1	-0.0659 ± 0.00287
351.93 K, 5000 kPa, x1 = 0.7	-0.0796 ± 0.00311
352.43 K, 5000 kPa, x1 = 0.6	-0.0885 ± 0.00359
352.79 K, 5000 kPa, x1 = 0.8	-0.0634 ± 0.00263
352.88 K, 5000 kPa, x1 = 0.5	-0.096 ± 0.00359
353.01 K, 5000 kPa, x1 = 0.2	-0.0922 ± 0.00359
353.16 K, 5000 kPa, x1 = 0.4	-0.0995 ± 0.00382
353.32 K, 5000 kPa, x1 = 0.3	-0.1 ± 0.00382
353.54 K, 5000 kPa, x1 = 0.1	-0.0624 ± 0.00263
353.78 K, 5000 kPa, x1 = 0.7	-0.0773 ± 0.00311
354.25 K, 5000 kPa, x1 = 0.6	-0.0852 ± 0.00335
354.69 K, 5000 kPa, x1 = 0.5	-0.0921 ± 0.00359
354.82 K, 5000 kPa, x1 = 0.2	-0.0883 ± 0.00359
354.97 K, 5000 kPa, x1 = 0.4	-0.095 ± 0.00359
